Data from patent US20130280204A1 (priority 2007, published 2013).

Tested on: Wuhan E119V
Assay type: cell-based, influenza A virus H3N2
Details: read-out: IC50 (nM zanamivir) A/Wuhan/359/95 (second line)

For “3-Acetamido-2-(1-(((4-(aminomethyl)phenyl)carbamoyl)oxy)-2,3-dihydroxypropyl)-4-guanidino-3,4-dihydro-2H-pyran-6-carboxylic acid [compound 4]”, the IC50 was 51 ± 5 nM.
